Reference: patent US20150031890A1, “PHARMACEUTICAL COMPOSITION COMPRISING BICYCLIC PYRIDINOL DERIVATIVES FOR PREVENTING OR TREATING DISEASES CAUSED BY ANGIOGENESIS” (Research Cooperation Foundation of Yeungnam University, priority 2011, published 2015)

Legend:
[1] = tested on: neovascularization induced by VEGF in chicken chorioallantoic membrane (CAM); assay: chorioallantoic membrane (CAM) assay, VEGF-induced angiogenesis; type: in vivo
Procedure: To examine angiogenesis inhibitory effects in vivo, a chorioallantoic membrane (CAM) assay was carried out (Nguyen M et al., Microvascular Res., 47, pp 31-40, 1994).
Fertilized chicken eggs were cultured keeping the temperature at 37° C. and the relative humidity at 55%. On the tenth day, the first small hole was made in the region of air sac and the second hole was dug in the flat region of egg, where a window was to be made, using a hypodermic needle (Greencross Medical Science, Korea).
Each egg was deflated through the first hole in the region of the air sac so that the chorioallantoic membrane (CAM) was split from the egg shell. Subsequently, a window was made by cutting this region using a grinding wheel (Multipro 395JA, Dremel, Mexico).
Then, a whatman filter disc #1 (Whatman Inc. USA) was treated with 3 mg/ml of cortisone acetate and dried. The filter disc was drenched with a vascular endothelial growth factor (VEGF) in a concentration of 20 ng/CAM.
The filter disc was put on the vessels through the previously made window, and a compound 12 of Example was dissolved in dimethylsulfoxide (DMSO) and diluted with phosphate buffered saline (PBS) to treat by concentrations.
After 3 days from the drug treatment, the CAMs, on which the filter disc was placed, were separated and washed with PBS to take images using a stereomicroscope (Stemi SV6 stereomicroscope, Carl Zeiss, Germany) and Image-Pro Plus software (Media Cybernetics; Silver Spring, Md., USA). Then, the number of branches was counted and the result data were analyzed.

HUVEC cells [2] = assay: ROS scavenging effect in VEGF-induced HUVEC cells (DCF-DA); type: cell-based, human; settings: 3 hours pre-treatment, VEGF 15 minutes, compared with the VEGF (FIG. 5)
Procedure: (§1) In order to measure an ROS scavenging effect in HUVEC cells induced by a VEGF, 2′,7′-dichlorofluorescein diacetate (DCF-DA) was used. […] The HUVEC cells were injected into 8-well plates coated with 0.2% gelatin in a density of 1×10^5 cells/well and then cultured for 24 hours. A pre-treatment was carried out to the compound 12 for 3 hours and induced by the VEGF for 15 minutes and washed with PBS (pH 7.4) three times. Then, 10 μM DCF-DA was put into an EBM-2 and used to treat in darkroom for 30 minutes, and then washed again with the PBS three times. A fluorescence degree of the cells was measured using a fluorescence microscope. FIG. 5 provides photomicrographs taken at a magnification of 400 times of cells in order to check an ROS scavenging effect of the compound 12 of the present invention. […] FIG. 6 and FIG. 7 illustrate an observation result of the ROS scavenging effect of the compound 12 by treating the adult retinal pigment epithelium (ARPE)-19 cell line with 4-hydroxynonenal (4-HNE) or angiotensin II, which is a risk factor of macular degeneration. […] The 4-hydroxynonenal (4-HNE) or angiotensin II, which is a risk factor of macular degeneration caused cell damage by generation of ROS in ARPE cell and caused damage of a Bruch's membrane and angiogenesis, resulting in macular degeneration and loss of eyesight.

[3] = single oral dose toxicity experiment in mice; type: in vivo; settings: single oral dose 0.5, 1 and 2 g/kg, 7 days
Procedure: The compound 12 was suspended in a 0.5% methyl cellulose solution and orally administered to male Balb/c mice with a single dose of 0.5 g/kg, 1 g/kg, and 2 g/kg. Then, the survival rate and weights of the mice were checked for 7 days.
After the administration, whether the animal was dead or not, clinical symptoms, changes in weight were observed, and a hematological test and a blood chemical test were carried out.

[4] = tested on: adult retinal pigment epithelium (ARPE)-19 cell line; assay: ROS scavenging effect in ARPE-19 cell line (4-HNE or angiotensin II); type: cell-based, human
Procedure: as §1

HUVEC cells [5] = assay: chemostatic migration / infiltration inhibitory effect in HUVEC cells; type: cell-based, human; settings: 1, 3, 10 μM, 24 hours, matrigel/collagen coated filter (FIG. 4)
Procedure: In order to examine a chemostatic migration inhibitory effect of the compound of the present invention, the following in vitro experiment was carried out using HUVEC cells (Mi-Sung Kim et al., Cancer Research, 63, 5454-5461, 2003; Sang-Oh Yoon et al., The Journal of Biological Chemistry, 276, 20085-20092, 2001; Sonia Zorzet et al., The Journal of Pharmacology and Experimental Therapeutics, 295, 927-933, 2000). A culture plate applied hereto was a 24-well plate (Corning Costar, Cambridge, Mass.) including a polycarbonate filter having a plurality of pores of […] in size. The bottom side of the polycarbonate filter was coated with 20 l of type I collagen in a concentration of 0.5 mg/ml, and the top side thereof was coated with 20 l of matrigel (BD Bioscience, Bedford, Mass.) in a concentration of 1.5 mg/ml. Here, the lower region of the polycarbonate filter was filled with a medium including 2% FBS, and the HUVEC cells were inoculated into the upper region of the polycarbonate filter. In this case, the compound 12 was dissolved in dimethyl sulfoxide (DMSO) and diluted with phosphate buffered saline (PBS) by concentrations (1, 3, 10 μM). The HUVEC cells inoculated as such were cultured at 37° C. for 24 hours. Subsequently, the cells infiltrating the bottom side of the polycarbonate filter were fixed with methanol and stained with hematoxylin and eosin. […]

A549 lung cancer cells = assay: angiogenesis caused by tumorigenesis and tumor growth, A549 cells inoculated to CAM; type: in vivo, chicken; settings: A549 cells 1.5×10^6 cells/CAM, 5 days after inoculation (FIG. 8)
Procedure: FIG. 8 illustrates an observation result of angiogenesis caused by tumorigenesis by inoculating A549 lung cancer cells to a CAM and a tumor growth inhibitory effect. Fertilized chicken eggs were cultured, and on the ninth day, a window was made in the same manner, and instead of a disc, cancer cells were mixed with matrigel at a ratio of 1:1 and treated with the compound 12 and inoculated in a density of 1.5×10^6 cells/CAM. After 5 days from the inoculation, a CAM portion, in which tumor was formed, was separated and washed with PBS to take images using a stereomicroscope (Stemi SV6 stereomicroscope, Carl Zeiss, Germany) and Image-Pro Plus software (Media Cybernetics; Silver Spring, Md., USA). Then, the number of branches was counted and the result data were analyzed.

HUVEC cells [6] = assay: VEGF-induced growth inhibitory effect in HUVEC cells (MTT); type: cell-based, human; settings: 24 hours, MTT (FIG. 3)
Procedure: HUVEC cells were cultured in a flask coated with 0.2% gelatin. Then, the HUVEC cells were cultured in an endothelial cell basal medium-2 (EBM-2, Clonetics, San Diego, Calif.). This EBM-2 contained fetal bovine serum (FBS), hydrocortisone, a human basic fibroblast growth factor (hFGF-B), a vascular endothelial growth factor (VEGF), a human recombinant insulin-like growth factor (R3-IGF-1), ascorbic acid, a human epidermal growth factor (hEGF), GA-1000, and heparin. The HUVEC cells were cultured for 4 to 5 days and injected into a 24-well plate in a density of 5×10^4 cells/well, and the media of the respective wells were set at 1 ml. In order to test the effect of the compound 12 in endothelial cells induced by the VEGF, the HUVEC cells were treated with a mixture of the VEGF and the compound 12 and cultured for 24 hours, and, then, 100 μl of MTT 3-(4,5-dimethylthiazol-2-yl)-2,5-diphenyl tetrazolium bromide; 5 g MTT/l in H2O) was added thereto and further cultured for 4 hours. Then, 200 μl of dimethylsulfoxide (DMSO) was added to the respective wells containing the corresponding cells and mixed with a pipette to dissolve the reduced MTT crystals. Relative cell survival rates were measured by scanning with a microplate reader (Molecular Devices, Menlo Park, Calif.) having 540 nm filter.

[7] = VEGF 20 ng/CAM + 3 ng/CAM, 0.7 μM
[8] = VEGF 20 ng/CAM + 100 ng/CAM, 23 μM
[9] = VEGF 20 ng/CAM + 1 μg/CAM, 3 days after treatment

## Cc1c(C)c2c(c(C)c1O)CC[C@@](C)(CCC[C@H](C)CCC[C@H](C)CCCC(C)C)O2 [α-tocopherol]
[1]; [7]
  Inhibition rate (%): 45.1 ± 9.3%
  Number of branches/Main vessel: 32.3 ± 3.5
[1]; [8]
  Inhibition rate (%): 64.4 ± 14.2%
  Number of branches/Main vessel: 24.3 ± 2.7

## CNC(=O)[C@H](Cc1ccccc1)NC(=O)[C@H](CC(C)C)[C@H](CSc1cccs1)C(=O)NO [Batimastat]
[1]; [9]
  Inhibition rate (%): 78.4 ± 7.4%
  Number of branches/Main vessel: 19.9 ± 2.87

## Cc1nc2c(c(C)c1O)CC(C)(CCC[C@H](C)CCC[C@H](C)CCCC(C)C)N2C (stereo partly shown) [Compound 12]
HUVEC cells [2]
  fluorescence degree of the cells (ROS, DCF-DA): remarkably decreased as compared with the VEGF
[3]
  clinical symptoms: any especially remarkable clinical symptoms were not observed
[4]; ARPE-19 treated with 4-hydroxynonenal (4-HNE), compared with control group (FIG. 7)
  fluorescence degree of the cells (ROS): remarkably decreased as compared with the control group
[4]; ARPE-19 treated with angiotensin II, compared with control group (FIG. 6)
  fluorescence degree of the cells (ROS): remarkably decreased as compared with the control group
[1]; CAM, VEGF 20 ng/CAM
  increase in neovascularization induced by the VEGF: decreased in a concentration-dependent manner
[1]; Gallus gallus, VEGF 20 ng/CAM + 0.004 ng/CAM, 1 nM, read-out: Inhibition rate (%)
  inhibition at 0.001 µM: 64 ± 12.5%
[1]; Gallus gallus, VEGF 20 ng/CAM + 0.04 ng/CAM, 10 nM, read-out: Inhibition rate (%)
  inhibition at 0.01 µM: 71.4 ± 6.4%
[1]; Gallus gallus, VEGF-induced angiogenesis, treated by concentrations (FIG. 2)
  IC50: 0.7 nM
[1]; VEGF 20 ng/CAM + 0.004 ng/CAM, 1 nM
  Number of branches/Main vessel: 28 ± 4.7
[1]; VEGF 20 ng/CAM + 0.04 ng/CAM, 10 nM
  Number of branches/Main vessel: 25.2 ± 2.4
HUVEC cells [5]
  infiltration of the HUVEC cells: reduced infiltration of the HUVEC cells in a concentration-dependent manner
A549 lung cancer cells
  angiogenesis caused by tumorigenesis: inhibited angiogenesis caused by tumorigenesis
  tumor growth: inhibited tumor growth in a significantly low concentration as compared with α-tocopherol
HUVEC cells [6]
  VEGF-induced cell growth: reduced VEGF-induced cell growth in a concentration-dependent manner

## CN(C)c1ccc(/C=C2\C(=O)Nc3ccccc32)cc1 [SU4312]
[1]; [9]
  Inhibition rate (%): 74.6 ± 12.1%
  Number of branches/Main vessel: 24 ± 4.6
